# Peptide text beside a SMILES is read from it.
# Columns and labels:
# [1] = Peptide stability in solution at pH 7.4 (HPLC peak area vs reference); assay type: physicochemical; conditions: for Stability of peptides (ratio of the pick area on the indicated day/ pic area of a fresh solution of the same peptide): 7-day incubation in solution at pH7.4, - 20°C; for stability in solution (in words): in solution at physiological pH (pH 7.4)
# Method: To develop a relevant vaccine, it is necessary to have a proper drug substance stability. To assess stability, the peptides were diluted at à 0,5 mg/mL in water, adjusted at pH 7.4, frozen at -20° C, and analyzed by HPLC (Hypersil GOLD C8 15cm x 4.6mm x 5µm (ThermoFisher) on the indicated day, using an elution buffer CH3CN 15%, TFA 0,1%. The pic area was compared to a reference standard.
# Indeed, after 7 days at -20°C, the pic of SEQ ID NO: 4 was reduced by 53%, while SEQ ID NO: 7 was stable (> 95%) for at least 3 months at pH7.4 at -20°C, and at least 7 days at room temperature. Table 4: Stability of peptides after a 7-day incubation period in solution at pH7.4 at different temperature (ratio of the pick area on the indicated day/ pic area of a fresh solution of the same peptide)
# [2] = assay type: binding; conditions: pH 7.5
# Method: L-Dopa alone (0.8mg/ml) was polymerized into melanin for 2h at pH 8.5 and 60°C under agitation. The reaction mixture was then filtered on a 10kDa filter, and the retentate containing the synthetic melanin was resuspended at pH 7.5 in phosphate buffer. Peptides were then added (at the weight ratio melanin/peptide of 2) and the mixtures were incubated for 18 hours at room temperature. Tricine-SDS-PAGE analysis was performed as described in Carpentier; 2017 (op. cit.). Briefly, samples (peptide-Mel or peptide alone) were loaded on acrylamide gels. Following electrophoresis, the gels were stained with Coomassie Brilliant Blue R-250 and imaged with the ChemiDoc XRS+ system (Bio-Rad Laboratory), allowing the quantification of the free peptide in the gel. The binding of peptides to melanin was expressed as the ratio: [amount of unbound peptide in samples Peptide-Mel / amount of peptides in control samples containing peptides alone]. […] Table 3: Binding of peptides on synthetic melanin. L-Dopa (0.8mg/ml) underwent an oxidative polymerization at pH 8.5 in aerobic conditions for 2 hours at 60°C. The reaction mixture was then filtered on a 10kDa filter, and the retentate containing the synthetic melanin was resuspended at pH 7.5. […] The percentage of peptides that bound to melanin was then quantified with SPS-page analysis
# [3] = Peptide stability in solution at pH 7.4 (HPLC peak area vs reference); assay type: physicochemical
# [4] = Filterability and precipitation of the mixture peptide + melanin; assay type: physicochemical; conditions: mixture peptide + melanine in isotonic saline
# Description: Filterability of a medical formulation on a 0.2µ filter is important to achieve a sterile solution.
# [5] = 7-day incubation in solution at pH7.4, 4°C
# [6] = 7-day incubation in solution at pH7.4, Room temperature
Stability of peptides (ratio of the pick area on the indicated day/ pic area of a fresh solution of the same peptide) [1] [%],stability in solution (in words) [1],percentage of peptides that bound to melanin [2] [%],"Stability of peptides (ratio of the pick area on the indicated day/ pic area of a fresh solution of the same peptide) [3, 5] [%]","Stability of peptides (ratio of the pick area on the indicated day/ pic area of a fresh solution of the same peptide) [3, 6] [%]",time remaining in suspension [4],stable (remaining peptide) ([1]; at least 3 months at pH7.4 at -20°C) [%],"stable (remaining peptide) ([1]; at least 7 days at room temperature, pH7.4) [%]",SMILES
47,highly unstable,59,,,,,,"CC[C@H](C)[C@H](NC(=O)CNC(=O)[C@@H](NC(=O)[C@H](CO)NC(=O)[C@H](CCC(N)=O)NC(=O)[C@H](CC(C)C)NC(=O)[C@H](CCCCN)NC(=O)[C@H](CO)NC(=O)[C@H](Cc1c[nH]c2ccccc12)NC(=O)[C@@H](NC(=O)[C@H](CO)NC(=O)[C@H](CCCCN)NC(=O)[C@@H](N)CS)C(C)C)[C@@H](C)CC)C(=O)N[C@@H](CCCNC(=N)N)C(=O)N[C@@H](CCC(N)=O)C(=O)N[C@@H](Cc1c[nH]cn1)C(=O)O [SEQ ID NO: 4, CKSVWSKLQSIGIRQH] (H-CKSVWSKLQSIGIRQH-OH)"
23,highly unstable,,25,3,,,,"CC[C@H](C)[C@H](NC(=O)CNC(=O)[C@@H](NC(=O)[C@H](CO)NC(=O)[C@H](CCC(N)=O)NC(=O)[C@H](CC(C)C)NC(=O)[C@H](CCCCN)NC(=O)[C@H](CO)NC(=O)[C@H](Cc1c[nH]c2ccccc12)NC(=O)[C@@H](NC(=O)[C@H](CO)NC(=O)[C@H](CCCCN)NC(=O)[C@@H](N)CCSC)C(C)C)[C@@H](C)CC)C(=O)N[C@@H](CCCNC(=N)N)C(=O)N[C@@H](CCC(N)=O)C(=O)N[C@@H](Cc1c[nH]cn1)C(=O)O [SEQ ID NO: 5, MKSVWSKLQSIGIRQH] (H-MKSVWSKLQSIGIRQH-OH)"
100,,,98,92,,,,"CC[C@H](C)[C@H](NC(=O)CNC(=O)[C@@H](NC(=O)[C@H](CO)NC(=O)[C@H](CCC(N)=O)NC(=O)[C@H](CC(C)C)NC(=O)[C@H](CCCCN)NC(=O)[C@H](CO)NC(=O)[C@H](Cc1c[nH]c2ccccc12)NC(=O)[C@@H](NC(=O)[C@H](CO)NC(=O)[C@@H](N)CCCCN)C(C)C)[C@@H](C)CC)C(=O)N[C@@H](CCCNC(=N)N)C(=O)N[C@@H](CCC(N)=O)C(=O)N[C@@H](Cc1c[nH]cn1)C(=O)O [SEQ ID NO: 1, KSVWSKLQSIGIRQH, reference compound]"
100,very stable,,100,100,more than 18 hours,> 95,> 95,"CC[C@H](C)[C@H](NC(=O)CNC(=O)[C@@H](NC(=O)[C@H](CO)NC(=O)[C@H](CCC(N)=O)NC(=O)[C@H](CC(C)C)NC(=O)[C@H](CCCCN)NC(=O)[C@H](CO)NC(=O)[C@H](Cc1c[nH]c2ccccc12)NC(=O)[C@@H](NC(=O)[C@H](CO)NC(=O)[C@H](CCCCN)NC(=O)[C@@H](N)CO)C(C)C)[C@@H](C)CC)C(=O)N[C@@H](CCCNC(=N)N)C(=O)N[C@@H](CCC(N)=O)C(=O)N[C@@H](Cc1c[nH]cn1)C(=O)O [SEQ ID NO: 7, SKSVWSKLQSIGIRQH] (H-SKSVWSKLQSIGIRQH-OH)"

# From patent EP4420677A1, “VACCINES AGAINST TERT-POSITIVE TUMORS” (Altevax, priority 2023, dated 2024)
